In ChEMBL document CHEMBL3272201, “Synthesis of tetrazole ribonucleosides and their evaluation as antiviral agents” (J Med Chem, 1976) one finds Activity data, which are given here for 4 compounds.

Common to all, as to format: functional, organism-based
For experiment [1], the system named is Influenza A virus. Put plainly: Antiviral activity against Influenza A virus (A2/Asian/J305) infected in Swiss albino mouse assessed as increase in host survival at 100 mg/kg, ip administered 4 hrs before infection, 1 hr after infection followed by twice daily for next 6 days for total of 14 treatments measured on 21st day post-infection. Details: dose 100 mg/kg.

Experiment [2] deals with Influenza A virus. As to the kind of experiment: Antiviral activity against Influenza A virus (A2/Asian/J305) infected in Swiss albino mouse assessed as increase in host survival at 20 mg/kg, ip administered 4 hrs before infection, 1 hr after infection followed by twice daily for next 6 days for total of 14 treatments measured on 21st day post-infection. Details: dose 20 mg/kg.

For experiment [3], the system named is Influenza A virus. Put plainly: Antiviral activity against Influenza A virus (A2/Asian/J305) infected in Swiss albino mouse assessed as increase in host survival at 25 mg/kg, ip administered 4 hrs before infection, 1 hr after infection followed by twice daily for next 6 days for total of 14 treatments measured on 21st day post-infection. More on the design: dose 25 mg/kg.

Activity calls are given as the source filed them. No cut-off for these calls is given here.

For the compound `NC(=O)c1nnnn1[C@@H]1O[C@H](CO)[C@@H](O)[C@H]1O`, the result in the experiment on Influenza A virus [1] was inactive.
Take `NC(=O)c1ncn([C@@H]2O[C@H](CO)[C@@H](O)[C@H]2O)n1`: in the experiment with Influenza A virus [2], the result was Active.
Regarding `NC(=O)Cc1nnnn1[C@@H]1O[C@H](CO)[C@@H](O)[C@H]1O`, the outcome in the experiment with Influenza A virus [3] was inactive.
In the case of `OC[C@H]1O[C@@H](n2cnnn2)[C@H](O)[C@@H]1O`, in the experiment on Influenza A virus [1], the result was inactive.
